In assay [1] the test system is G-protein coupled muscarinic acetylcholine receptors. In words: Acetylcholine challenge of HEK 293 cells co-transfected with TetO-G-CaMP2 and CMV-VP22-tTA, G-CaMP2 fluorescence. The assay is classed as cell-based, human. The conditions noted are these: 10 μM acetylcholine, HEK 293 TetO-G-CaMP2 + CMV-VP22-tTA, excited at 488 nm. Here is the method:
Cells co-transfected with the two plasmids show fluorescence, while cells with only one of the plasmids, or neither, are not fluorescent (Control, FIG. 1A). The addition of 10 μM acetylcholine (ACH) induces a subpopulation of cells to respond with increases in fluorescence (FIG. 1B). Acetylcholine activates G-protein coupled muscarinic acetylcholine receptors and mobilizes intracellular calcium. Arrows point to three of the responsive cells (a, b, and c of both FIGS. 1A and 1B).
(AFU: artificial fluorescence unit).
Human embryonic kidney cells (HEK 293) were co-transfected with TetO-G-CaMP2 and a construct containing a tetracycline transactivator protein under the control of a ubiquitous promoter (CMV-VP22-tTA). […] The change in fluorescence indicated proper function of the G-CaMP2 sensor combined with the tetracycline inducible system.

In assay [2] the test system is glomeruli / sensory neurons of the olfactory bulb. In words: Odor stimulation of OMP-tTA-G-CaMP2 compound transgenic mice, fluorescence imaging of olfactory bulb. The assay is classed as in vivo, mouse. The conditions noted are these: for subset of sensory neurons / glomeruli activated by odor: different odors alone or combined, FIGS. 9 and 12; for activation of G-CaMP2 fluorescence in glomeruli by odor: odor delivered to the nose, thinned skull, FIG. 5; for course of G-CaMP2 intensity as the activation sequence progressed: FIGS. 10E and 11E; for sequence of glomeruli activation over length of odor exposure: FIGS. 10 and 11. The procedure: The compound transgenic mice (“transgenic mice”) containing the G-CaMP2 indicator targeted to the olfactory neurons may be used to evaluate neuron stimulation and map the signals sent in the brain. The response of sensory neurons was analyzed by stimulating transgenic mice with odor of varying concentrations. After anesthetizing mice with an injection of ketamine, the skin over the olfactory bulb was removed and the underlying skull covering the olfactory bulb was surgically thinned. The mice were then secured on an imaging plate and placed underneath a fluorescent microscope for imaging analysis. Background fluorescence was detected before odor stimulation (FIG. 5A). […] Amyl Acetate of various concentrations was also delivered to the nose of the animals using a custom made olfactometer. […] Odor delivery excited the sensory neurons, which generated action potentials that reached both olfactory bulbs.
The concentration of odor presented also activated glomeruli in a dose dependent manner (FIGS. 12C and 12D).
Animals are anesthetized with Ketamin/Xylazine cocktail and the righting reflex of the hind limbs are tested prior to surgery. Once deeply anesthetized, the hair over the head is shaved with a razor blade and a midline incision is made in the skin covering the skull to expose the olfactory bulb. For direct imaging, a head holder is glued to the bone and the animal is mounted to the microscope stage with the olfactory bulb region positioned right under the lens. (FIGS. 9 and 10). For bone thinning imaging, micro dental tools wet with saline are used to scrape the surface of the bone covering the olfactory bulb. Occasional air puffs are used to cool the thinning surface to prevent heat damage of the brain tissue. We normally stop when the bone can be indented by the gentle tough of a forceps tip, which is about 50 μm thick. The surface is then gently cleaned with saline and the head holder is attached for mounting the animal to the microscope.

`CC(=O)OCC[N+](C)(C)C` [acetylcholine]: the “increase in fluorescence, cell A” value in assay [1] (FIG. 2A) is “approximately 90 AFU”. Also, the “increase in fluorescence, cell B” value in assay [1] (FIG. 2B) is on record as “approximately 95 AFU”. In addition, the “increase in fluorescence, cell C” value in assay [1] (FIG. 2C) was “approximately 50 AFU”.

`CCCCCOC(C)=O` [amyl acetate]: in assay [2], the “subset of sensory neurons / glomeruli activated by odor” value is “activated different neurons” and the “activation of G-CaMP2 fluorescence in glomeruli by odor” value is reported as “several glomeruli activating G-CaMP2 fluorescence”. Besides, the “response of right and left olfactory bulbs to various odor concentrations” value in assay [2] (various concentrations, olfactometer, FIG. 6) is “both the right and left olfactory bulbs were similarly stimulated”.

For `CCCC=O` [butyraldehyde], in assay [2], the “course of G-CaMP2 intensity as the activation sequence progressed” value was “continued to increase”, the “sequence of glomeruli activation over length of odor exposure” value is recorded as “sequentially activated glomeruli” and the “subset of sensory neurons / glomeruli activated by odor” value was “activated”.

Consider `CCCCCC(=O)O` [hexanoic acid], for which the “subset of sensory neurons / glomeruli activated by odor” value in assay [2] is “activated”.

With `CCCCCCCC=O` [octanal], in assay [2], the “course of G-CaMP2 intensity as the activation sequence progressed” value is on record as “decrease in G-CaMP2 expression”, the “sequence of glomeruli activation over length of odor exposure” value is recorded as “activated several different glomeruli sequentially” and the “activation of G-CaMP2 fluorescence in glomeruli by odor” value is on record as “response of several glomeruli to activate G-CaMP2 fluorescence”.

These data come from patent publication US9018440B2, “Fluorescent mouse model” (Stowers Institute for Medical Research, priority 2006, dated 2015).
